In patent publication US12396471B2, “Composition containing sesamin and PQQ” (SUNTORY HOLDINGS LIMITED, priority 2019, dated 2025):

Tested on: TIG-3 cells
Test: Evaluation test of mitochondrial function: amount of ATP production (decrease in oxygen consumption rate by oligomycin) after H2O2 treatment
Type: cell-based
Details: for Measured value: amount of ATP production (amount of decrease in oxygen consumption rate by the ATP synthase inhibitor): TIG-3 cells cultured 24 h with test substance, then H2O2 800 μM for two hours, XF analyzer, concentrations of SE and PQQ·2Na per example; for Recovery rate (%) from Comparative Example 1: measured value divided by that of Comparative Example 1 (H2O2 800 μM only) x 100
Experimental: To examine mitochondrial function, TIG-3 cells at 5.5×10^3 cells/well were seeded onto cell culture plates, and cultured at 37° C. with CO2 (5%) for 24 hours. After 24 hours of culturing, compositions each containing a sesamin-episesamin mixture and PQQ were added to the media in the wells at the respective concentrations shown in Table 1 below, and cultured for 24 hours. Subsequently, the media containing the sesamin-episesamin mixture and the PQQ were removed, and the cells in the wells were treated with media containing H2O2 (800 μM) for two hours. Subsequently, each medium was replaced with an analysis medium, and the oxygen consumption rate was analyzed using an analyzer (XF analyzer, Agilent Technologies Japan, Ltd.). After completion of analysis, the nuclei were stained with Hoechst, and the cells were photographed by a fluorescence microscope “BZ-x” (Keyence Corporation). The number of cells was counted by image analysis. The amount of ATP production was the amount of decrease in oxygen consumption rate by the ATP synthase inhibitor (oligomycin).
(§1) To examine mitochondrial function, TIG-3 cells at 5.5×10^3 cells/well were seeded onto a dedicated plate, and cultured at 37° C. with CO2 (5%) for 24 hours. The cells were further cultured for 26 hours without adding a sesamin-episesamin mixture and a composition containing PQQ to the medium 24 hours after the first culturing and without treating cells in the well with a medium containing H2O2 (800 μM) for two hours. Then, the oxygen consumption rate in Reference Example 1 was analyzed and the number of cells was counted as in Example 1, except for the differences described above. The amount of ATP production was also measured.
as §1, with “24” for “26”, “culturing.” for “culturing and without treating cells in the well with a medium containing H2O2 (800 μM) for two hours.”, “Comparative” for “Reference”
To examine mitochondrial function, TIG-3 cells at 5.5×10^3 cells/well were seeded onto a dedicated plate, and cultured at 37° C. with CO2 (5%) for 24 hours. After 24 hours of culturing, a sesamin-episesamin mixture or PQQ was added to each medium in the wells at the corresponding concentration shown in Table 1 below, and cultured for 24 hours. Except what is described above, the oxygen consumption rate in each of Comparative Examples 2 to 9 was analyzed, and the number of cells was counted as in Example 1. The amount of ATP production was measured.
In Table 1, values in “Measured value” (pmol/min/10^3 cells) show the amount of ATP production (the amount of decrease in oxygen consumption rate by the ATP synthase inhibitor) determined above.
Values in “Recovery rate (%) from Comparative Example 1” are each obtained by dividing a measured value in one example or comparative example by the measured value of Comparative Example 1 and multiplying the resulting value with 100. A higher recovery rate means a larger amount of ATP production. […] In FIG. 1, “SE” indicates the sesamin-episesamin mixture.

Row | SMILES | Measured value: amount of ATP production (amount of decrease in oxygen consumption rate by the ATP synthase inhibitor) | decline in the amount of ATP production compared to the H2O2-treated group according to Comparative Example 1 (TIG-3 cells, H2O2 800 μM) | Recovery rate (%) from Comparative Example 1 (TIG-3 cells) | increase in the amount of ATP production compared to the H2O2-treated group according to Comparative Example 1 (TIG-3 cells, H2O2 800 μM)
1 | O=C([O-])c1cc(C(=O)[O-])c2c(n1)C(=O)C(=O)c1cc(C(=O)O)[nH]c1-2.[Na+].[Na+] [Comparative Example 5, PQQ·2Na] | 6.06 pmol/min/10^3 cells | 5.5% | 94.5% | –
2 | O=C([O-])c1cc(C(=O)[O-])c2c(n1)C(=O)C(=O)c1cc(C(=O)O)[nH]c1-2.[Na+].[Na+] [Comparative Example 6, PQQ·2Na] | 6.49 pmol/min/10^3 cells | – | 101.1% | 1.1%
3 | O=C([O-])c1cc(C(=O)[O-])c2c(n1)C(=O)C(=O)c1cc(C(=O)O)[nH]c1-2.[Na+].[Na+] [Comparative Example 7, PQQ·2Na] | 6.71 pmol/min/10^3 cells | – | 104.6% | 4.6%
4 | O=C([O-])c1cc(C(=O)[O-])c2c(n1)C(=O)C(=O)c1cc(C(=O)O)[nH]c1-2.[Na+].[Na+] [Comparative Example 8, PQQ·2Na] | 7.40 pmol/min/10^3 cells | – | 115.3% | 15.3%
5 | O=C([O-])c1cc(C(=O)[O-])c2c(n1)C(=O)C(=O)c1cc(C(=O)O)[nH]c1-2.[Na+].[Na+] [Comparative Example 9, PQQ·2Na] | 7.56 pmol/min/10^3 cells | – | 117.8% | 17.8%
